In ChEMBL document CHEMBL1129245, “N-heteroaryl-2-phenyl-3-(benzyloxy)piperidines: a novel class of potent orally active human NK1 antagonists” (J Med Chem, 1996):

Assays:
Substance-P receptor = Substance-P receptor (Homo sapiens, UniProt P25103); assay: Displacement of [125 I]-Tyr8 SP from the cloned human Tachykinin receptor 1 expressed in CHO cells; assay type: cell-based
Oryctolagus cuniculus = species: Oryctolagus cuniculus; assay: Displacement of [3H]diltiazem from rabbit skeletal muscle calcium channel; assay type: tissue-based; settings: Muscle tissue

Substance-P receptor, sequence (P25103 whole entry): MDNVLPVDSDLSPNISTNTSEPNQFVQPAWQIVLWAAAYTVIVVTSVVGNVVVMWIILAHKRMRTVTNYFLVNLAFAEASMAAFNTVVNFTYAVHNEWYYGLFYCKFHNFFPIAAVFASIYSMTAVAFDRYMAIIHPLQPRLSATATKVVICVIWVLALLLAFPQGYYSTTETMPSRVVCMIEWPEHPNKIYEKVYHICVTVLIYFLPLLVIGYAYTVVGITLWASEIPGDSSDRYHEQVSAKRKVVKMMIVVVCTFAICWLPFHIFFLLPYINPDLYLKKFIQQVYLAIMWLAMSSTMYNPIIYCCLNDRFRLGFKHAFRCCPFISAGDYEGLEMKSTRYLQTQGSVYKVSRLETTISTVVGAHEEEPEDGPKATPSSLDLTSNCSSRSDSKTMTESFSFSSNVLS

SMILES | IC50 (Substance-P receptor) [nM] | Binding affinity (Oryctolagus cuniculus) [µM]
FC(F)(F)c1cc(CO[C@H]2CCCN(Cc3cnc[nH]3)[C@H]2c2ccccc2)cc(C(F)(F)F)c1 | 0.9 | –
FC(F)(F)c1cc(CO[C@H]2CCCN(Cc3nn[nH]n3)[C@H]2c2ccccc2)cc(C(F)(F)F)c1 | – | > 5
FC(F)(F)c1cc(CO[C@H]2CCCN(Cc3ncc[nH]3)[C@H]2c2ccccc2)cc(C(F)(F)F)c1 | 0.53 | 2.06
